Results from paper PMC8391236, “Effect of Pterostilbene, a Natural Derivative of Resveratrol, in the Treatment of Colorectal Cancer through Top1/Tdp1-Mediated DNA Repair Pathway” (Cancers, 2021).

Assays:
Type in all cases: cell-based, Human
siRNA-Tdp1 CL187 cells = assay: Apoptosis by flow cytometry; conditions: 48 h
Description: (§1) Exponentially growing CL187 cells were seeded in 6-well plates (1.2 × 10^6 cells/well) until a well was filled with cells. The RE or PTE at various concentrations were added separately into plate wells and incubated with cells for 48 h. The incubated cells were collected and treated by Annexin V-FITC/PI Apoptosis Detection Kit. The stained cells were analyzed with a flow cytometer (Becton-Dickinson, Franklin Lakes, NJ, USA), and data analyses were performed with BD Cell Quest^TM pro 6.0..

Tdp1-over CL187 cells = assay: Apoptosis by flow cytometry; conditions: 48 h
Description: as §1

Tdp1 = assay: Western blot of Tdp1 protein in cells; conditions: 6 h
Description: CL187 cells were treated with RE or PTE for 6 or 12 h, collected, and placed into lysis buffer (KeyGEN BioTECH, Nanjing, China). The total protein content in the cell lysates was measured using a BCA kit. Equivalent amount of total protein (30 μg) was loaded onto 10% SDS-PAGE gel. Electrophoresis was performed at 80 V for 25 min. After the sample went through concentrated gel, the voltage was adjusted to 120 V. Electrophoresis was stopped when the bromophenol blue band approached the bottom of the gel. After being transferred to PVDF membranes, the samples were incubated separately with 3 types of primary antibodies Top1, Tdp1, and P53 rabbit mAb (CST, Boston, MA, USA), followed by the incubation with secondary antibody goat anti-rabbit IgG (HRP)-conjugated (1:3000). ECL kit (New Cell and Molecular Biotech, Suzhou, China) was used for color development, and the images were collected by the gel imaging system (Tanon-5200, Shanghai, China).

COc1cc(/C=C/c2ccc(O)cc2)cc(OC)c1 [PTE, 3,5-dimethoxy-4′-hydroxy-trans-stilbene]
cell apoptotic proportion (siRNA-Tdp1 CL187 cells; siRNA-Tdp1 CL187, 10 μM): 18.16% | cell apoptotic proportion (siRNA-Tdp1 CL187 cells; siRNA-Tdp1 CL187, 20 μM): 20.92% | cell apoptotic proportion (siRNA-Tdp1 CL187 cells; siRNA-Tdp1 CL187, 50 μM): 24.38% | cell apoptotic proportion (Tdp1-over CL187 cells; Tdp1-over CL187, 10 μM): 26.80% | cell apoptotic proportion (Tdp1-over CL187 cells; Tdp1-over CL187, 20 μM): 31.81% | cell apoptotic proportion (Tdp1-over CL187 cells; Tdp1-over CL187, 50 μM): 32.87% | Tdp1 protein content (Tdp1; Tdp1-over CL187 cells): reduced in dese-dependent manner | Tdp1 protein content (Tdp1; siRNA-Top1 CL187 cells): reduced in a dose-dependent manner | Tdp1 protein content (Tdp1; wild-type CL187 cells): decreased in PTE treatment group, but neither in dese-dependent and significant manner
